Source: patent US8461299B2, “Peptide capable of binding to immunoglobulin” (MMT Co., Ltd., priority 2007, dated 2013)

Assays:
[1] = tested on: binding between human C1q protein and alkaline phosphatase (ALP)-labeled human immunoglobulin (IgG); test: Inhibition of the binding between an immunoglobulin and C1q (C1q spotted on nitrocellulose membrane, ALP-labeled IgG detection); conditions: peptide 500 μg/ml; 400 ng human C1q per spot; ALP-labeled human IgG diluted 1000-fold; room temperature, one hour
From the text: It was investigated whether or not the 9 residue-peptide CKVPGLYYF (SEQ ID NO: 2) considered to be necessary for the binding between C1q and an immunoglobulin (IgG) inhibits the binding between C1q and an immunoglobulin. Peptide (R2) having the amino acid sequence of SEQ ID NO: 2, peptide (R1) having a shorter amino acid sequence than this peptide, PGLYYF (SEQ ID NO: 1), as well as peptide (R3) having the amino acid sequence SGKFTCKVPGLYYFT (SEQ ID NO: 3), peptide (R4) having the amino acid sequence FTCKVPGLYYFTYHA (SEQ ID NO: 4), peptide (R5) having the amino acid sequence STGKFTCKVPGLYYF (SEQ ID NO: 5), and peptide (R6) having the amino acid sequence CKVPGLYYFVYHASH (SEQ ID NO: 7), which contain the amino acid sequence indicated by SEQ ID NO: 2, were prepared by outsourcing to GL Biochem (Shanghai). Each peptide was dissolved in dimethylsulfoxide so as to reach a concentration of 10 mg/ml and stored.
Human C1q protein (manufactured by Carbiochem) was dissolved in 10 mM HEPES, 300 mM NaCl and 40% glycerol (pH 7.2) to prepare a 200 μg/ml human C1q protein solution.
The human C1q protein solution was spotted at 2 μl (400 ng) each onto a 5 mm×15 mm size nitrocellulose membrane (Hybond C; manufactured by Amersham), which was air-dried at room temperature for approximately one hour. The nitrocellulose membrane was soaked in TBS, incubated for 5 minutes, and blocked at room temperature for one hour using TBS (20 mM Tris-HCl pH 7.5, 150 mM NaCl) containing 5% blocking agent (Amersham ECL blocking reagent; manufactured by GE Healthcare). After a slight wash in TBS, the membrane was soaked in 20 μl of a mixed solution of alkaline phosphatase (ALP)-labeled human immunoglobulin (IgG) (manufactured by BECKMAN COULTER) diluted 1000-fold in TBS and each peptide so as to reach a concentration of 500 μg/ml, and let it react at room temperature for one hour. After a slight wash in TTBS solution (TBS added with Tween 20 to a final concentration of 0.05%), the membrane was washed in the same solution for 10 minutes, shaking three times.
After the nitrocellulose membrane was washed slightly in ALP coloring buffer (Tris-HCl containing 100 mM NaCl, 5 mM MgCl2, pH 9.5), it was soaked in 30 μl ALP coloring buffer containing BCIP/NBT solution (manufactured by Promega), and colored at room temperature for 10 minutes. Upon obtaining a staining image, the nitrocellulose membrane was soaked in a sufficient amount of distilled water to wash away the coloring buffer. After washing the nitrocellulose membrane was air-dried and the staining image was captured using Multi Gauge (FUJIFILM). […]

[2] = tested on: monoclonal antibody cocktail-induced arthritis mice; test: Arthritis inhibitory action on an arthritis-induced mouse-2 (clinical score, general state, body weight); assay type: in vivo; conditions: 10 mg/kg intraperitoneally twice daily from day 0 for 14 days
Method: The arthritis inhibitory action of the peptides indicated in Example 2 as R1, R2 and R5 was examined using monoclonal antibody cocktail-induced arthritis mice. An arthritis-inducing monoclonal antibody cocktail was intravenously administered at 2 mg/individual, and three days later, LPS was intraperitoneally administered at 50 μg/individual to the mice to induce arthritis. For each peptide, from the day the arthritis-inducing monoclonal antibody cocktail was administered (day 0), continuous administration was carried out at 10 mg/kg each, twice daily, for 14 days, and the arthritis inhibitory action was examined by clinical scoring. Note that the experiments were carried out by similar methods to Example 3 (1).
Based on the animal body weight, the required amount of each peptide was calculated. A solution was prepared with a 0.5% methyl cellulose solution so as to reach a concentration of 1 mg/ml, and was stored refrigerated.
With the day the arthritis-inducing monoclonal antibody cocktail was administered as day 0, the animal's body weight was measured on day 0, 3, 6, 9, 12 and 14 during the test period. General state observation was carried out daily.
The body weight was measured on the day prior to starting administration and randomly assigned with a grouping software so that the average body weight value of each group was approximately the equal. To twenty 7 week-old mice, an arthritis-inducing monoclonal antibody cocktail were intravenously administered at 2 mg/individual on day 0, and LPS was intraperitoneally administered at 50 μg/individual on day 3.
Each peptide solution was intraperitoneally administered twice daily, in the morning and in the afternoon, from day 0. As a control, 0.5% methyl cellulose solution was intraperitoneally administered twice daily from day 0. For administration, a syringe needle (26G, Terumo) and a syringe barrel (1.0 ml capacity, Terumo) were used. The dosage was 10 ml/kg. […]

[3] = tested on: Type III allergic (Arthus) reaction-induced rat; test: Type III allergic (Arthus) reaction model, Evans blue dye leakage; assay type: in vivo
Method: The test for peptide R1, R2 and R5 using 64 male rats of the Slc:Wistar strain, which were 7 weeks old was carried out in twice, i.e. for each administration method (intraperitoneal administration and tail vein administration). Acclimation was carried out by giving normal solid chow CRF-1 for 9 days or longer. The day prior to administration, the dorsal hair of the animal was shaved, and on the administration day, a solution of OVA+Evans blue dye mix was administered into the tail vein. Each peptide solution was administered, 30 minutes after administration of a solution of OVA+Evans blue dye mix if administered intraperitoneally or 50 minutes after if administered into the tail vein, respectively. Regarding intracutaneous administration of anti-OVA solution, the solution was intradermally administered to the dorsal region of the animal at a dose of 0.1 ml/site, 30 minutes after administration of the test substance in case of intraperitoneal administration or 10 minutes after in case of intravenous administration, to induce locally an Arthus reaction. Four hours after the induction, the animals were euthanized, the blood was removed thoroughly, and then the dorsal skin was removed. The Arthus reaction site on the removed skin was punched out, and the Evans blue dye was extracted from this skin overnight. The amount of dye leaked was quantified by measuring the absorbance for Evans blue dye with a spectrophotometer and using a calibration curve (note that, regarding experimental methods used in Example 4, reference should be made to H. Okamoto, Y. Iwahisa and M. Terasawa: Suppression of the Arthus reaction by Y-24180, a potent and specific antagonist of platelet-activating factor. Agents Actions, 35: 149-158 (1992)).
The predetermined weighed amounts of each peptide (peptides R1, R2 and R5) were dissolved in physiological saline respectively to obtain a 20 mg/ml solution. A 2 mg/ml solution was prepared by diluting 10-fold a 20 mg/mL solutions with physiological saline. 5 mg/ml solutions were prepared by dissolving each peptide in predetermined weighed amounts in physiological saline to obtain preparation solutions.
A solution of OVA+Evans blue dye mix was administered into the tail vein at 2 ml/kg. Each peptide solution was administered, 30 minutes after administration of the solution of OVA+Evans blue dye mix if administered intraperitoneally or 50 minutes after if administered into the tail vein, respectively. Regarding intracutaneous administration of anti-OVA solution, the solution was intradermally administered to the dorsal region of the animal at a dose of 0.1 ml/site, 30 minutes after administration of the test substance in case of intraperitoneal administration or 10 minutes after in case of intravenous administration, to induce locally an Arthus reaction. Intracutaneous administration was such that there were two PBS sites and two ant-OVA solution sites per animal. Four hours after the induction, the animals were euthanized by decapitation under ether anesthesia, the blood was removed thoroughly, and then the dorsal skin was removed. […]
The skin strip that was punched out with a punch was slit at several locations, soaked in 2 ml of dye extraction solution, and shaken and agitated for 10 minutes. […] The amount of dye leaked was calculated from the dye amount calibration curve.
The group mean values (mean)±standard deviation (SD) were calculated for the body weight measurement values and the amounts of dye leaked. […]

[4] = tested on: monoclonal antibody cocktail-induced arthritis mice (BALB/c Cr Slc (SPF)); test: Arthritis inhibitory action on an arthritis-induced mouse-1 (clinical score); assay type: in vivo
Method: Using monoclonal antibody cocktail-induced arthritis mice (BALB/c Cr Slc (SPF)), the arthritis inhibitory action of the peptide indicated as R5 in Example 2 was examined. Arthritis was induced by intravenous administration of 2 mg/individual of an arthritis-inducing monoclonal antibody cocktail, followed by intraperitoneal administration of 50 μg/individual of Lipopolysaccharide (LPS) three days later. From the day following LPS administration (day 4) until day 14, 10 mg/kg of peptide. R5 was intraperitoneally administered once daily or twice daily. The positive control agent methotrexate was orally administered once daily at 0.1 mg/kg from day 4. The clinical score of the extremities was measured on even days from day 0 to day 14. Under anesthesia, blood was removed with heparin-containing physiological saline, ice-cold 4% paraformaldehyde solution was continuously injected to perfusion-fix the whole body. After perfusion-fixation subsequent, both hind limbs knee joints (the center of the femur and the center of the tibia were cut; skin and muscles were removed) and heel joints (from the center of the tibia to the toe tips) were excised and further immersion-fixed with 4% paraformaldehyde solution overnight (4° C.). Thereafter, both knee and heel joints were transferred to 50 mM PBS (4° C.), then soft x-ray radiography of the heel articulations were taken from two directions (internal side direction and upper side direction).
Based on the animal body weight, the required amount was calculated for the peptide. A peptide solution was prepared with a 0.5% methyl cellulose solution so as to reach a concentration of 1 mg/ml, and the prepared peptide solution was stored refrigerated. […]
With the day the arthritis-inducing monoclonal antibody cocktail was administered as day 0, the animal's body weight was measured on day 0, 3, 6, 9, 12 and 14 during the test period. […]

[5] = intraperitoneal administration, 10 mg/kg or 100 mg/kg
[6] = tail vein administration, 10 mg/kg

| Substance | inhibition of the binding between C1q and an immunoglobulin (IgG) [1] | arthritis inhibitory action (clinical score) [2] | inhibitory action on immune-complex disease (amount of dye leaked) [3, 5] | inhibitory action on immune-complex disease (amount of dye leaked) [3, 6] | arthritis inhibition (clinical score) ([4]; 10 mg/kg intraperitoneally once daily or twice daily, day 4 until day 14) | difference in effectiveness between once daily administration and twice daily administration ([4]; 10 mg/kg intraperitoneally, day 4 until day 14) | level of arthritis inhibition compared with methotrexate ([4]; peptide 10 mg/kg intraperitoneally, methotrexate 0.1 mg/kg orally once daily from day 4) |
| --- | --- | --- | --- | --- | --- | --- | --- |
| CKAPGLYYF (Immunoglobulin binding peptide) [R10] | inhibit |  |  |  |  |  |  |
| CKVPGLYYF (Immunoglobulin binding peptide) [R2] | inhibited | Arthritis inhibitory action was observed | clear and sufficient inhibitory action | clear and sufficient inhibitory action |  |  |  |
| PGLYYF (Immunoglobulin binding peptide) [R1] | inhibited | Arthritis inhibitory action was observed | clear and sufficient inhibitory action | clear and sufficient inhibitory action |  |  |  |
| STAKFTCKVPGLYYF (Immunoglobulin binding peptide) [R11] | inhibit |  |  |  |  |  |  |
| STGKFTCKVPGLYYF (Immunoglobulin binding peptide) [R5] |  | Arthritis inhibitory action was observed | clear and sufficient inhibitory action |  | an effect on arthritis inhibition was observed | no significant difference | higher than that of methotrexate |
